The record followed here is paper PMC6832219, “Synthesis of Novel Baicalein Amino Acid Derivatives and Biological Evaluation as Neuroprotective Agents” (Molecules, 2019).

Data set [1] concerns chick chorioallantoic membrane (CAM). The data set is described as follows: Angiogenesis assay on chick chorioallantoic membrane (CAM), gelatin sponge. Format: in vivo. The note with it: 1 and 4 mg/mL on gelatin sponge. The method, then: Especially multi-effective neuroprotective agents present positive effects to neurosurgical patients. According to the references, baicalein can promote angiogenesis. Analogously, the angiogenesis activities of compound 8 were evaluated by a CAM assay (Figure 4 and Figure 5). The model was established according to our previous work. After implantation, the sponge is treated with a stimulator of blood vessel formation in the absence or presence of an angiogenesis inhibitor. […] The high survival rate of embryos and normal growth of medium and large vessels (inner diameter > 50 µm) indicates successful modeling and low toxicity of compound 8 […] (Figure 5). Suppression of small vessels (inner diameter < 50 µm) were recognized as angiogenesis activity. […]
Fertilized White Leghorn chicken eggs (50–65 g), provided by the Chinese Academy of Agricultural Sciences, were placed in an incubator as soon as embryogenesis started, and were kept under constant humidity of 65% at 37 °C. […] Quantitative evaluation of the angiogenic response, expressed as microvessel density, can be obtained by applying a morphometric method of “point counting” on histological CAM sections. Data was analyzed using a t-test of the statistics analysis system; the values were expressed as mean ± SD of six observations, and p < 0.05 was considered significant. […]

Data set [2] has as its system injured SH-SY5Y cells. The data set is described as follows: Morphological detection of apoptosis using DAPI staining. It is filed as cell-based. The settings on record: 6.25, 12.5, and 25 μM, 72 h. On the procedure:
To further study the mechanism of growth inhibition of compound 8 on injured SH-SY5Y cells, DAPI staining was performed. Injured SH-SY5Y cells were treated with compound 8 at […] concentrations for 72 h. […] When the concentration of the drug increased, the shape of the cells became regular.
SH-SY5Y cells in logarithmic growth phase were seeded in 12-well plates (2.4 × 10^4 cells/well). After incubation for 24 h at 37 °C in a humidified atmosphere with 5% CO2, various concentrations of compound 8 was added to the cultures, and the plate was incubated for further 72 h. After discarding the cell culture medium, washing twice with PBS, and fixing with 4% paraformaldehyde for 10 min, 4′,6-diamidino-2-phenylindole (DAPI, 1 mg/mL, Molecular Probes/Invitrogen Life Technologies, Carlsbad, CA, USA), staining was performed for 5 min in the dark, and nuclear fragments were observed under fluorescence microscope.
Figure 3 Morphological detection of apoptosis using 4′,6-diamidino-2-phenylindole (DAPI) staining (200×) on injured SH-SY5Y cells treated with compound 8, (a) control group, (b) injury group, (c) 6.25 μM, (d) 12.5 μM, and (e) 25 μM.

The test system of data set [3] is injured SH-SY5Y cells. The data set is described as follows: Morphological detection of apoptosis using Giemsa staining. It is filed as cell-based. The settings on record: 6.25, 12.5, 25 μM, 72 h. The method, then: SH-SY5Y cells in the logarithmic growth phase were seeded in 12-well plates (1.2 × 10^4 cells/well). After incubation for 24 h at 37 °C with 5% CO2, various concentrations ([…] concentrations) of compound 8 were added to the cultures, and the plate was incubated for a further 72 h. Then, we discarded the cell culture fluid, washed twice with phosphate-buffered saline (PBS), and fixed the cells with cold methanol. The SH-SY5Y cells were stained with 6% Giemsa solution for 5 min, washed with water, and dried. The cell morphological changes were observed under an inverted microscope.
Figure 2 Morphological detection of apoptosis using Giemsa staining (200×) on injured SH-SY5Y cells treated with compound 8: (a) control group, (b) injury group, (c) 6.25 μM, (d) 12.5 μM, and (e) 25 μM.

The test system of data set [4] is H9C2 cells. The data set is described as follows: Toxicity on normal H9C2 cells (MTT assay). It is filed as cell-based. The settings on record: read-out: Survival Rate (%). (Tetrazolium assays rely on reduction of a dye to a coloured formazan, in cell work by metabolically active cells.)

Take `O=C(NC(Cc1ccccc1)C(=O)Oc1c(O)cc2oc(-c3ccccc3)cc(=O)c2c1O)OCc1ccccc1` (centres unmarked) [Compound 8, 5,7-dihydroxy-4-oxo-2-phenyl-4H-chromen-6-yl 2-{[(benzyloxy)carbonyl]amino}-3-phenyl-proppanpate]: the “Toxicity in CAM model (embryo survival, medium and large vessels)” value in data set [1] is “low toxicity”. The “Angiogenesis activity on CAM (small vessels)” value in data set [1] (48 h) is “dramatically promote small angiogenesis in a dose-dependent manner”. Further, in data set [2], the “Nuclear morphology / apoptosis (DAPI staining)” value was “protects injured SH-SY5Y cells from apoptosis”. Moreover, the “Nuclear and cytoplasmic morphological changes (Giemsa staining)” value in data set [3] is “alleviating morphological manifestations of cell damage”. The viability at 100 µM in data set [4] worked out at 168%.
